Laboratory results reported in patent publication US20260216400A1, “CELL-[…] MOLECULE IMPARTING PROTEIN ADHESION […] CELLS” (THE UNIVERSITY OF OSAKA, priority 2023, published 2026).

Legend:
Test in all cases: Binding of FITC-labeled collagen-binding peptides to coated wells (Example 6)
laminin = settings: 37° C., 3 hours
Method: (§1) The selectivity of collagen-binding peptides for components of the extracellular matrix was investigated. […] After washing, the fluorescence intensity was measured using a confocal laser scanning microscope.

type IV collagen = settings: 37° C., 3 hours
Method: as §1

type I collagen = type I collagen (Homo sapiens, UniProt P02452+P08123)
type I collagen, sequence (P08123 80-1119): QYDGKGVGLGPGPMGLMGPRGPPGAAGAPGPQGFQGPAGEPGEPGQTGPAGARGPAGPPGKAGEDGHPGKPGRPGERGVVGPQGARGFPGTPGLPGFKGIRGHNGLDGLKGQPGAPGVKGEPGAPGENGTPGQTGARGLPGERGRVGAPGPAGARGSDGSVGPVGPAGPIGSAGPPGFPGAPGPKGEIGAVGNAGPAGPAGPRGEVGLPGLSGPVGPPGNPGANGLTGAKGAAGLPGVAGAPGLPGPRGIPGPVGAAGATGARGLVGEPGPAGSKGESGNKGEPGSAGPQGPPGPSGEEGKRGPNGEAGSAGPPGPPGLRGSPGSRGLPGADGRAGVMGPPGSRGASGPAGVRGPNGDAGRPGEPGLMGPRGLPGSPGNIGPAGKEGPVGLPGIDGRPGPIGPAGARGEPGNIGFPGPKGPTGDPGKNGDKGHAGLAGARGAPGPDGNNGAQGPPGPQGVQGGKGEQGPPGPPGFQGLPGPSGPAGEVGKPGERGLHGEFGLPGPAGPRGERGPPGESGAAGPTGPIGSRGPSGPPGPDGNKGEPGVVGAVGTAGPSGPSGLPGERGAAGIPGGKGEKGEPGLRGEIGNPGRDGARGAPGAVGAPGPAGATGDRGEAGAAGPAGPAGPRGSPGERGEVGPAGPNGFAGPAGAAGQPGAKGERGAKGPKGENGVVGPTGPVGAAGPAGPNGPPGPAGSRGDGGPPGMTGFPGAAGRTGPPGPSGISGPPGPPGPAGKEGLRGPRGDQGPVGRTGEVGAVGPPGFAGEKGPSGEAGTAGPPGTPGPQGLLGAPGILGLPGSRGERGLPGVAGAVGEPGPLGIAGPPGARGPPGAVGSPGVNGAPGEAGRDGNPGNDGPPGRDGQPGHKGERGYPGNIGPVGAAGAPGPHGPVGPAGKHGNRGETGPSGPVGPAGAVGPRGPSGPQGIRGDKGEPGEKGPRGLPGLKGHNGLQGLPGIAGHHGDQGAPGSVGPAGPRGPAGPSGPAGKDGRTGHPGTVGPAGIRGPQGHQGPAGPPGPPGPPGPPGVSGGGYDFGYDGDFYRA
type I collagen, sequence (P02452 162-1218): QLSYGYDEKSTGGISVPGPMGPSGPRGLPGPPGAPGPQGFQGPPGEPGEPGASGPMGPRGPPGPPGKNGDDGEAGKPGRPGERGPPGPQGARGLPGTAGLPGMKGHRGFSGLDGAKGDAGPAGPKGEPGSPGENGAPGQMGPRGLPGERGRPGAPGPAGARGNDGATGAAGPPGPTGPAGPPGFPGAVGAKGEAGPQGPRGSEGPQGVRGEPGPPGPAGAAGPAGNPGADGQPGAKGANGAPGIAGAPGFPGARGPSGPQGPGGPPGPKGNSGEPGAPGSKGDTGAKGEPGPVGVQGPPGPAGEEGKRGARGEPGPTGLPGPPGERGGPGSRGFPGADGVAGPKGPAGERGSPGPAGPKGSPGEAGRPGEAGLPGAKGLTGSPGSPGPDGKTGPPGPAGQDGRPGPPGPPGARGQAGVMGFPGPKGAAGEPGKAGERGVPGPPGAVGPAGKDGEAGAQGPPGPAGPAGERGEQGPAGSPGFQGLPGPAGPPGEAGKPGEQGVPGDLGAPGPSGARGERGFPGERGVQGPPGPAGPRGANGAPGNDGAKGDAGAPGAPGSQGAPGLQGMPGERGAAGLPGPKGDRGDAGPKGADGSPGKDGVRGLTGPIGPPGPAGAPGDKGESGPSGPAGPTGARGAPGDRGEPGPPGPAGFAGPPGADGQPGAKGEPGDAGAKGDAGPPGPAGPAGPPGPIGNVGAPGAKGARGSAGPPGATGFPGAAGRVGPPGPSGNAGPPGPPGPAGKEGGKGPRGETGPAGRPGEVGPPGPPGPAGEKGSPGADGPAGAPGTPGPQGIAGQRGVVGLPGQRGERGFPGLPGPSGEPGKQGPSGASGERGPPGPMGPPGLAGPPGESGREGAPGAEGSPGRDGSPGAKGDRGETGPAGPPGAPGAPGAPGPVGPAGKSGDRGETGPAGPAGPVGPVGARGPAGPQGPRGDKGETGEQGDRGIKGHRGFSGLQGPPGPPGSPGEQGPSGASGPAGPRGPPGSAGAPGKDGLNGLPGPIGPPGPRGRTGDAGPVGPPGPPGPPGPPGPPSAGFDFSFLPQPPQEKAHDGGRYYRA

## TKKTLRT
laminin
  binding to laminin (fluorescence intensity): in a concentration-dependent manner
Type IV collagen
  binding to type IV collagen (fluorescence intensity): in a concentration-dependent manner

## SYIRIADNTNIT
Type I collagen; 100 μM (box in FIG. 6), type I collagen, type IV collagen, laminin wells
  fluorescence intensity compared between peptides: stronger than that of TKKTLRT
Type I collagen; coated wells, 37° C., 3 hours
  binding to type I collagen (fluorescence intensity): in a concentration-dependent manner
Type I collagen; type I collagen, type IV collagen, laminin
  selectivity for components of the extracellular matrix (order): type I collagen>type IV collagen>laminin
laminin
  binding to laminin (fluorescence intensity): in a concentration-dependent manner
Type IV collagen
  binding to type IV collagen (fluorescence intensity): in a concentration-dependent manner
